From patent US20250090573A1, “COMPOSITIONS FOR DELIVERING NITRIC OXIDE AND FLUORIDE AND METHODS FOR MAKING AND USING THE SAME” (University of Georgia Research Foundation, Inc., priority 2022, published 2025)

Columns and labels:
[1] = GSNO/NO loading by chemiluminescence NO analyzer (Cu1+ depletion); assay type: physicochemical; settings: hydrogel precursor sol, aqueous with cosolvent or surfactant or cyclodextrin; read-out: GSNO sol concentration after which solubility is incomplete
[2] = tested on: hFOB 1.19; test: Cellular cytotoxicity of GSNO and precursor sol materials (CCK-8); assay type: cell-based, human; settings: hFOB 1.19 cells, direct contact exposure
Method: (§1) The cell lines HGF and hFOB 1.19 were cultured for cytocompatibility assessments. HGF cells were cultured in fibroblast basal medium supplemented with the manufacturer's recommended growth kit (2% fetal bovine serum, 50 μg/mL ascorbic acid, 5 μg/mL rh insulin, […] hydrocortisone hemisuccinate, 5 ng/mL rh FGF b, and 7.5 mM L-glutamine) and penicillin-streptomycin (10 units/mL and 10 μg/mL, respectively). hFOB 1.19 cells were maintained in a 1:1 mixture of Ham's F12 Medium and Dulbecco's Modified Eagle's Medium supplemented with L-glutamine (2.5 mM), fetal bovine serum (10%) and G418 (0.3 mg/mL). Both cell types were incubated at 37° C. in a 5% CO2 humified atmosphere. Medium was replaced every 48 h and both cell lines were subcultured once monolayers were 80% confluent. Cells were detached from the flask surface via enzymatic treatment with 0.05% trypsin and 5 mM EDTA for 5 min, with isolation of cell pellets via centrifugation at 200 RCF for 5 min.
(§2) The cellular cytotoxicity of GSNO against HGF and hFOB 1.19 cells was tested over 24 h direct contact experiments. […] A separate set of wells containing only media and the dye (n=5) were also prepared to account for background readings. The absorbance of each well was measured at 450 nm, adjusted against the average absorbance reading of the wells with only media. […]

[3] = tested on: HGF; assay type: cell-based; settings: human, 24 h
Method: as §1, §2

For `N[C@@H](CCC(=O)N[C@@H](CSN=O)C(=O)NCC(=O)O)C(=O)O` [GSNO, S-Nitrosoglutathione], the solubility [1] was no more than 30 mg/mL, the “GSNO treatment eliciting cytotoxic response” value [2] was roughly 400 µg/mL and the “GSNO treatment eliciting cytotoxic response” value [3] was “greater than 100 μg/mL”.
